Source: patent US11912701B2, “Protein kinase inhibitors for promoting liver regeneration or reducing or preventing hepatocyte death” (HEPAREGENIX GMBH, priority 2018, dated 2024)

Columns and labels:
Format in all cases: biochemical
[1] = molecular target: JNK1 (Homo sapiens, UniProt P45983); test: 33PanQinase enzyme assay, JNK1; set-up: purchased ProQinase GmbH, Freiburg, Germany (33PanQinase Assay Service); details: ratio IC50(JNK1)/IC50(MKK4)
Method: (§1) The kinase activities of the compounds of the invention were measured using the 33PanQinase® Assay Service provided by ProQinase GmbH, Freiburg, Germany. Details of the assay conditions are disclosed on the website of ProQinase (https://www.proginase.com/products-services-biochemical-assay-services/kinase-assays). In brief, all kinase assays were performed in 96-well FlashPlates™ from PerkinElmer (Boston, MA, USA) in a 50 μl reaction volume. The reaction cocktail was pipetted in four steps in the following order: • 20 μl of assay buffer (standard buffer) • 5 μl of ATP solution (in H2O) • 5 μl of test compound (in 10% DMSO) • 20 μl enzyme/subtrate mix
(§2) The reaction cocktails were incubated at 30° C. for 60 minutes. The reaction is stopped with 50 μl of 2% (v/v) H3PO4, plates were aspirated and washed two times with 200 μl 0.9% (w/v) NaCl. Incorporation of ^33Pi was determined with a microplate scintillation counter (Microbeta, Wallac).
(§3) All assays were performed with a BeckmanCoulter/SAGIAN™ Core System.
(§4) In case of single concentration assays, the potency of the test compound is expressed as % residual activity. […] The fitting method used was a least-squares fit.
(§5) Selectivity of test compounds against BRaf, JNK1 and MKK7, altogether denominated as off-targets was calculated by the ratio of IC50 (off-target)/IC50 (MKK4) and categorized as follows: […]

[2] = molecular target: T1, MKK7 (Homo sapiens, UniProt O14733); test: 33PanQinase enzyme assay, MKK7; set-up: purchased ProQinase GmbH, Freiburg, Germany (33PanQinase Assay Service); details: ratio IC50(MKK7)/IC50(MKK4)
T1 sequence (O14733 1-419): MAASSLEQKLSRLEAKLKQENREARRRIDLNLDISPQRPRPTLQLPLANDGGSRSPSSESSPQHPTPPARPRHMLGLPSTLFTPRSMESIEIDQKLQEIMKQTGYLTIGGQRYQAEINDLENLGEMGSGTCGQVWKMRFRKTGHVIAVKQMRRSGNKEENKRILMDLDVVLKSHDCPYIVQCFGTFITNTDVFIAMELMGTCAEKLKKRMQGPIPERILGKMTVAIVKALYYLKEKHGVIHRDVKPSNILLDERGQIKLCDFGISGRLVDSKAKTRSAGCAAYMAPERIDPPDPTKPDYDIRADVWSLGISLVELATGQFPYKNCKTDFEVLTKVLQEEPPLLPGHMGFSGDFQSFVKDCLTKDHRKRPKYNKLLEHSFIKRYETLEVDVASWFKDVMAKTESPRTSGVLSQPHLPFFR
Method: as §1, §2, §3, §4, §5

[3] = molecular target: T2, MKK4 (Homo sapiens, UniProt P45985); test: 33PanQinase enzyme assay, MKK4; details: assay 'IC50'; read-out: Potency MKK4 (IC50)
T2 construct: purchased ProQinase GmbH, Freiburg, Germany (33PanQinase Assay Service)
T2 sequence (P45985 1-399): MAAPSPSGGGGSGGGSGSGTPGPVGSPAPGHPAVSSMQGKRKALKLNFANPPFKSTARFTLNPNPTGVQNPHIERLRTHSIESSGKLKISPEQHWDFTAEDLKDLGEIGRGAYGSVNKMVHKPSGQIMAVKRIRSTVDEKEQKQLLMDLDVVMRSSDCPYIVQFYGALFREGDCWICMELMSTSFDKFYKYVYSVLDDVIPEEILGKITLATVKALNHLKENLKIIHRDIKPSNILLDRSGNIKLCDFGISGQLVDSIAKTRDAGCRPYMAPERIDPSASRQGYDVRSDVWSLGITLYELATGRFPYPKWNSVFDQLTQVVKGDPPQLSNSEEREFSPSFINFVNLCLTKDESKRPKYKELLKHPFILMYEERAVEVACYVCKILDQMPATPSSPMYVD
Method: as §1, §2, §3, §4
Inhibition potency against MKK4 is categorized as follows:
Assay at single concentration (100 nM):

[4] = molecular target: T3, BRaf (Homo sapiens, UniProt P15056); test: 33PanQinase enzyme assay, BRaf; details: ratio IC50(BRaf)/IC50(MKK4)
T3 construct: purchased ProQinase GmbH, Freiburg, Germany (33PanQinase Assay Service)
T3 sequence (P15056 whole entry, species assumed): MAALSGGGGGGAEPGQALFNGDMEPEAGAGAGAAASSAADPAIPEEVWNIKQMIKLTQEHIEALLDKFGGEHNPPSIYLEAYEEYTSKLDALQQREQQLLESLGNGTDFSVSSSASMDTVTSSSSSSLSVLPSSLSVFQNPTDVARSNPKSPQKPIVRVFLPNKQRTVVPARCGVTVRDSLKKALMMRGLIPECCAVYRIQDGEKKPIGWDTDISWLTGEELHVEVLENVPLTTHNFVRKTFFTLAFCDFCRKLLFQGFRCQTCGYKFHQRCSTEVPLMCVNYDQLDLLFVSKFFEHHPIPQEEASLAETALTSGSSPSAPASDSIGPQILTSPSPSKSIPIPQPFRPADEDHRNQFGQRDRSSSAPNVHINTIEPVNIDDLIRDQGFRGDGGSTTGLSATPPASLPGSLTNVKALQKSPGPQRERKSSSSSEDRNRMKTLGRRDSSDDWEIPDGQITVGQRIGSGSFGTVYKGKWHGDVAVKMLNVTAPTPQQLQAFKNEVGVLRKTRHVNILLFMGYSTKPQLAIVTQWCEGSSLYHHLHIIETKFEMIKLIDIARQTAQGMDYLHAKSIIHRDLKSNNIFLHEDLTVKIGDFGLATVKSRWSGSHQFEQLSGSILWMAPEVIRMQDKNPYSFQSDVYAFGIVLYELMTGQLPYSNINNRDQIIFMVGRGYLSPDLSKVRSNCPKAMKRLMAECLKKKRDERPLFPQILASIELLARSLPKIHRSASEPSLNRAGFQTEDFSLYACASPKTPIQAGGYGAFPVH
Method: as §1, §2, §3, §4, §5

Chain of JNK1 (P45983 whole entry): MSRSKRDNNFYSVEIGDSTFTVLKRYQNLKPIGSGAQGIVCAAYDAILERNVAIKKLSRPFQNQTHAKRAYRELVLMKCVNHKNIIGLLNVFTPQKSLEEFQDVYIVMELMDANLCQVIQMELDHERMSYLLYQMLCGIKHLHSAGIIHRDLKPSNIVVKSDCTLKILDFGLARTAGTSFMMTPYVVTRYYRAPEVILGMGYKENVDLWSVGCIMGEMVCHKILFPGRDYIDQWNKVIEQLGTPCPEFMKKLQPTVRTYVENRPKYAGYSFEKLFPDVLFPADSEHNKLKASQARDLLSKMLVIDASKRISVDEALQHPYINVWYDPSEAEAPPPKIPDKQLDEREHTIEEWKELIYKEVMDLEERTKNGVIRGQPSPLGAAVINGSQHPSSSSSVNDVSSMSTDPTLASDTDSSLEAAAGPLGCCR

Structure (SMILES) | Selectivity JNK1, IC50(off-target)/IC50(MKK4) [1] | Selectivity IVIKK7, IC50(off-target)/IC50(MKK4) [2] | IC50 [3] [µM] | Selectivity Braf, IC50(off-target)/IC50(MKK4) [4]
CCCS(=O)(=O)Nc1ccc(F)c(C(=O)c2c[nH]c3ncc(-c4ncccn4)cc23)c1F [Example 90, N-(2,4-difluoro-3-(5-(pyrimidin-2-yl)-1H-pyrrolo[2,3-b]pyridine-3-carbonyl)phenyl)propane-1-sulfonamide] | ◯ (3 ≥ IC50(off-target)/IC50(MKK4)) | ++ (100 ≥ IC50(off-target)/IC50(MKK4) > 10) | 1 to 10 | ◯ (3 ≥ IC50(off-target)/IC50(MKK4))
CCCS(=O)(=O)Nc1ccc(F)c(C(=O)c2c[nH]c3ncc(-c4cncnc4)cc23)c1F [Example 91, N-(2,4-difluoro-3-(5-(pyrimidin-5-yl)-1H-pyrrolo[2,3-b]pyridine-3-carbonyl)phenyl)propane-1-sulfonamide] | ◯ (3 ≥ IC50(off-target)/IC50(MKK4)) | ++ (100 ≥ IC50(off-target)/IC50(MKK4) > 10) | 1 to 10 | ◯ (3 ≥ IC50(off-target)/IC50(MKK4))
CCCS(=O)(=O)Nc1ccc(F)c(C(=O)c2c[nH]c3ncc(-c4ccc(P(C)(C)=O)cc4)cc23)c1F [Example 93, N-(3-(5-(4-(dimethylphosphoryl)phenyl)-1H-pyrrolo[2,3-b]pyridine-3-carbonyl)-2,4-difluorophenyl)propane-1-sulfonamide] | ++ (100 ≥ IC50(off-target)/IC50(MKK4) > 10) | +++ (IC50(off-target)/IC50(MKK4) > 100) | 0.1 to 1 | ◯ (3 ≥ IC50(off-target)/IC50(MKK4))
CCCS(=O)(=O)Nc1ccc(F)c(C(=O)c2c[nH]c3ncc(C(=O)NOCCO)cc23)c1F [Example 94, 3-(2,6-difluoro-3-(propylsulfonamido)benzoyl)-N-(2-hydroxyethoxy)-1H-pyrrolo[2,3-b]pyridine-5-carboxamide] | + (10 ≥ IC50(off-target)/IC50(MKK4) > 3) | +++ (IC50(off-target)/IC50(MKK4) > 100) | < 0.1 | ◯ (3 ≥ IC50(off-target)/IC50(MKK4))
CCCS(=O)(=O)Nc1ccc(F)c(C(=O)c2c[nH]c3ncc(-c4ccc5c(c4)C=C(C)N=S5(C)=O)cc23)c1F (stereo not drawn) [Example 95, N-(3-(5-(1,3-dimethyl-1-oxido-1l4-benzo[e][1,2]thiazin-6-yl)-1H-pyrrolo[2,3-b]pyridine-3-carbonyl)-2,4-difluorophenyl)propane-1-sulfonamide] | ◯ (3 ≥ IC50(off-target)/IC50(MKK4)) | +++ (IC50(off-target)/IC50(MKK4) > 100) | 0.1 to 1 | ◯ (3 ≥ IC50(off-target)/IC50(MKK4))
CCCS(=O)(=O)Nc1ccc(F)c(C(=O)c2c[nH]c3ncc(-c4ccccc4C(F)(F)F)cc23)c1F [Example 97, N-(2,4-difluoro-3-(5-(2-(trifluoromethyl)phenyl)-1H-pyrrolo[2,3-b]pyridine-3-carbonyl)phenyl)propane-1-sulfonamide] | + (10 ≥ IC50(off-target)/IC50(MKK4) > 3) | +++ (IC50(off-target)/IC50(MKK4) > 100) | 0.1 to 1 | ◯ (3 ≥ IC50(off-target)/IC50(MKK4))
CCCS(=O)(=O)Nc1ccc(F)c(C(=O)c2c[nH]c3ncc(-c4ccc(N(C)C)cc4)cc23)c1F [Example 98, N-(3-(5-(4-(dimethylamino)phenyl)-1H-pyrrolo[2,3-b]pyridine-3-carbonyl)-2,4-difluorophenyl)propane-1-sulfonamide] | + (10 ≥ IC50(off-target)/IC50(MKK4) > 3) | ++ (100 ≥ IC50(off-target)/IC50(MKK4) > 10) | 1 to 10 | ◯ (3 ≥ IC50(off-target)/IC50(MKK4))
CCCS(=O)(=O)Nc1ccc(F)c(C(=O)c2c[nH]c3ncc(-c4ccc5ccccc5c4)cc23)c1F [Example 99, N-(2,4-difluoro-3-(5-(naphthalen-2-yl)-1H-pyrrolo[2,3-b]pyridine-3-carbonyl)phenyl)propane-1-sulfonamide] | ◯ (3 ≥ IC50(off-target)/IC50(MKK4)) | +++ (IC50(off-target)/IC50(MKK4) > 100) | 0.1 to 1 | ◯ (3 ≥ IC50(off-target)/IC50(MKK4))
CCCS(=O)(=O)Nc1ccc(F)c(C(=O)c2c[nH]c3ncc(-c4ccc(C(C)(C)C)cc4)cc23)c1F [Example 113, N-(3-(5-(4-(tert-butyl)phenyl)-1H-pyrrolo[2,3-b]pyridine-3-carbonyl)-2,4-difluorophenyl)propane-1-sulfonamide] | + (10 ≥ IC50(off-target)/IC50(MKK4) > 3) | +++ (IC50(off-target)/IC50(MKK4) > 100) | 0.1 to 1 | ◯ (3 ≥ IC50(off-target)/IC50(MKK4))
CCCS(=O)(=O)Nc1ccc(F)c(C(=O)c2c[nH]c3ncc(-c4cccc(C)c4)cc23)c1F [Example 114, N-(2,4-difluoro-3-(5-(m-tolyl)-1H-pyrrolo[2,3-b]pyridine-3-carbonyl)phenyl)propane-1-sulfonamide] | + (10 ≥ IC50(off-target)/IC50(MKK4) > 3) | +++ (IC50(off-target)/IC50(MKK4) > 100) | 0.1 to 1 | ◯ (3 ≥ IC50(off-target)/IC50(MKK4))
CCCS(=O)(=O)Nc1ccc(F)c(C(=O)c2c[nH]c3ncc(-c4cccc(F)c4)cc23)c1F [Example 115, N-(2,4-difluoro-3-(5-(3-fluorophenyl)-1H-pyrrolo[2,3-b]pyridine-3-carbonyl)phenyl)propane-1-sulfonamide] | + (10 ≥ IC50(off-target)/IC50(MKK4) > 3) | +++ (IC50(off-target)/IC50(MKK4) > 100) | 0.1 to 1 | ◯ (3 ≥ IC50(off-target)/IC50(MKK4))
CCCS(=O)(=O)Nc1ccc(F)c(C(=O)c2c[nH]c3ncc(-c4ccc(NC(C)=O)cc4)cc23)c1F [Example 116, N-(4-(3-(2,6-difluoro-3-(propylsulfonamido)benzoyl)-1H-pyrrolo[2,3-b]pyridin-5-yl)phenyl)acetamide] | ◯ (3 ≥ IC50(off-target)/IC50(MKK4)) | +++ (IC50(off-target)/IC50(MKK4) > 100) | 0.1 to 1 | ◯ (3 ≥ IC50(off-target)/IC50(MKK4))
